This note sets out measurements from PubChem BioAssay AID330 (DTP/NCI, 2004).

This test relates to P388 leukemia ip, CD2F1 mice, survival T/C. Description: NCI In Vivo Anticancer Drug Screen. Data for tumor model P388 Leukemia (intraperitoneal) in CD2F1 (CDF1) mice. The following applies: endpoint: median survival time, higher = longer survival. In outline: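 Mice carrying the transplanted tumor received test compound or vehicle. Survival was recorded in each group, and the value is the treated-group measurement divided by that of the vehicle-treated control group.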

Where [1] appears, read: dose: 100.0 mg/kg/injection, schedule: Q01DX001 (ip), vehicle: saline with Tween-80.
[2] abbreviates: dose: 200.0 mg/kg/injection, schedule: Q01DX001 (ip), vehicle: saline with Tween-80.
The mark [3] stands for this setting: dose: 400.0 mg/kg/injection, schedule: Q01DX001 (ip), vehicle: saline with Tween-80.
[4] abbreviates: dose: 60.0 mg/kg/injection, schedule: Q01DX005 (ip), vehicle: saline with Tween-80.
[5] abbreviates: dose: 120.0 mg/kg/injection, schedule: Q01DX005 (ip), vehicle: saline with Tween-80.
[6] abbreviates: dose: 50.0 mg/kg/injection, schedule: Q01DX009 (ip), vehicle: saline.

Each structure is given as a SMILES string. Several values for one entry are separate records, joined by “and”; a condition that tells them apart may be missing. Equal entries are not always repeated. Toxic doses and inconclusive results are not listed.

On to `COCc1cccc2ccnc(C)c12`, for which the T/C runs as follows: under setting [1], 104 % of control; under setting [2], 108 % of control; under setting [3], 107 % of control.

For `C=C1CC[N+]2(CCCC)CCCC12` (stereo not drawn), the T/C runs as follows: (dose: 7.5 mg/kg/injection, schedule: Q01DX005 (ip), vehicle: saline) 104 % of control; (dose: 15.0 mg/kg/injection, schedule: Q01DX005 (ip), vehicle: saline) 98 % of control; (dose: 30.0 mg/kg/injection, schedule: Q01DX005 (ip), vehicle: saline) 100 % of control.

Turning to `CCOC(=O)c1cnn(CC(OCC)OCC)c1N`, the T/C under setting [1] was 102 % of control, the T/C under setting [2] was 108 % of control and the T/C under setting [3] is 109 % of control.

For the compound `Cc1c2ccccc2cc2c1ccc1ccccc12`, the T/C by setting is: (dose: 17.5 mg/kg/injection, schedule: Q01DX009 (ip), vehicle: saline with Tween-80) 116 % of control; (dose: 25.0 mg/kg/injection, schedule: Q04DX003 (ip), vehicle: other) 100 % of control; (dose: 35.0 mg/kg/injection, schedule: Q01DX009 (ip), vehicle: saline with Tween-80) 122 % of control; (dose: 50.0 mg/kg/injection, schedule: Q04DX003 (ip), vehicle: other) 100 % of control; (dose: 70.0 mg/kg/injection, schedule: Q01DX009 (ip), vehicle: saline with Tween-80) 152 % of control; (dose: 100.0 mg/kg/injection, schedule: Q04DX003 (ip), vehicle: other) 102 % of control. Also, the T/C (dose: 200.0 mg/kg/injection, schedule: Q04DX003 (ip), vehicle: other) was 102 % of control and the T/C (dose: 400.0 mg/kg/injection, schedule: Q04DX003 (ip), vehicle: other) was 107 % of control.

For `N#Cc1ccc(OC(=O)Nc2c(Cl)cc(Cl)cc2Cl)cc1`, the T/C was 100 % of control under setting [4] and 92 % of control under setting [5].

With `CC(=O)Oc1ccc(N=Cc2cc3c(cc2[N+](=O)[O-])OCO3)cc1`, the T/C is, setting by setting: (dose: 12.5 mg/kg/injection, schedule: Q01DX009 (ip), vehicle: other) 113 % of control; (dose: 25.0 mg/kg/injection, schedule: Q01DX009 (ip), vehicle: other) 117 % of control; (dose: 50.0 mg/kg/injection, schedule: Q01DX009 (ip), vehicle: other) 109 % of control; (dose: 100.0 mg/kg/injection, schedule: Q01DX009 (ip), vehicle: other) 93 % of control; (dose: 200.0 mg/kg/injection, schedule: Q01DX009 (ip), vehicle: other) 92 % of control; (dose: 400.0 mg/kg/injection, schedule: Q01DX009 (ip), vehicle: other) 96 % of control.

As to `Nc1nc(N)c(Cc2ccncc2)cc1Cc1ccncc1`, the T/C was 112 % of control (dose: 50.0 mg/kg/injection, schedule: Q01DX005 (ip), vehicle: Klucel (hydroxypropylcellulose) (HPC)); 101 % of control (dose: 100.0 mg/kg/injection, schedule: Q01DX005 (ip), vehicle: Klucel (hydroxypropylcellulose) (HPC)); 111 % of control (dose: 200.0 mg/kg/injection, schedule: Q01DX005 (ip), vehicle: Klucel (hydroxypropylcellulose) (HPC)).

Turning to `CC(C)N=C(Cc1ccccc1)NC(C)(C)C`, the T/C (dose: 12.5 mg/kg/injection, schedule: Q01DX009 (ip), vehicle: saline) was 111 % of control; the T/C (dose: 25.0 mg/kg/injection, schedule: Q01DX009 (ip), vehicle: saline) was 101 % of control; the T/C under setting [6] is 98 % of control.

Take `Cc1cn(CCCSCC2OC3OC4C(CO)OC(OC5C(CO)OC(OC6C(CO)OC(OC7C(CO)OC(OC8C(CO)OC(OC9C(CO)OC(OC2C(O)C3O)C(O)C9O)C(O)C8O)C(O)C7O)C(O)C6O)C(O)C5O)C(O)C4O)c(=O)[nH]c1=O` (stereo not drawn): the T/C is, setting by setting: (dose: 50.0 mg/kg/injection, schedule: Q01DX005 (ip), vehicle: saline) 103 % of control; (dose: 100.0 mg/kg/injection, schedule: Q01DX005 (ip), vehicle: saline) 100 % of control; (dose: 200.0 mg/kg/injection, schedule: Q01DX005 (ip), vehicle: saline) 98 % of control.

On to `C=C1CC2(CC3(C(C)C)CC3C2C)OC1=O` (stereo not drawn), for which the T/C is 100 % of control (dose: 100.0 mg/kg/injection, schedule: Q01DX001 (ip), vehicle: saline); 99 % of control (dose: 200.0 mg/kg/injection, schedule: Q01DX001 (ip), vehicle: saline); 110 % of control (dose: 400.0 mg/kg/injection, schedule: Q01DX001 (ip), vehicle: saline).

On to `Nc1ccccc1CN1C(=O)CCC1=O`, for which the T/C was 105 % of control under setting [6]; 101 % of control (dose: 100.0 mg/kg/injection, schedule: Q01DX009 (ip), vehicle: saline); 99 % of control (dose: 200.0 mg/kg/injection, schedule: Q01DX009 (ip), vehicle: saline).

On to `Cc1c(N)nc([C@H](CC(N)=O)NC[C@H](N)C(N)=O)nc1C(=O)N[C@H](C(=O)N[C@H](C)[C@@H](O)[C@H](C)C(=O)N[C@H](C(=O)NCCc1nc(-c2nc(C(=O)NCCC[S+](C)C)cs2)cs1)[C@@H](C)O)C(OC1OC(CO)C(O)C(O)C1OC1OC(CO)C(O)C(OC(N)=O)C1O)c1cnc[nH]1` (stereo partly drawn), for which the T/C is 121 % of control (dose: 3.13 mg/kg/injection, schedule: Q01DX009 (ip), vehicle: Klucel (hydroxypropylcellulose) (HPC)); 100 % of control (dose: 3.5 mg/kg/injection, schedule: Q01DX009 (ip), vehicle: saline); 117 % of control (dose: 3.6 mg/kg/injection, schedule: Q01DX009 (ip), vehicle: saline); 115 % of control (dose: 4.0 mg/kg/injection, schedule: Q04DX003 (ip), vehicle: saline); 107 % of control and 114 % of control (dose: 5.3 mg/kg/injection, schedule: Q01DX009 (ip), vehicle: saline); 123 % of control (dose: 6.25 mg/kg/injection, schedule: Q01DX009 (ip), vehicle: Klucel (hydroxypropylcellulose) (HPC)). Also, the T/C is, setting by setting: (dose: 8.0 mg/kg/injection, schedule: Q04DX003 (ip), vehicle: saline) 122 % of control; (dose: 12.0 mg/kg/injection, schedule: Q01DX009 (ip), vehicle: saline) 106 % of control and 121 % of control; (dose: 12.5 mg/kg/injection, schedule: Q01DX009 (ip), vehicle: Klucel (hydroxypropylcellulose) (HPC)) 121 % of control; (dose: 16.0 mg/kg/injection, schedule: Q04DX003 (ip), vehicle: saline) 121 % of control; (dose: 25.0 mg/kg/injection, schedule: Q01DX009 (ip), vehicle: Klucel (hydroxypropylcellulose) (HPC)) 94 % of control.

`COc1cccc(C(=O)NCCNCCNC(=O)c2cccc(OC)c2OC)c1OC`: the T/C is 108 % of control under setting [4]; 104 % of control under setting [5]; 94 % of control (dose: 240.0 mg/kg/injection, schedule: Q01DX005 (ip), vehicle: saline with Tween-80).

For `O=C(N[C@@H](CO)[C@H]1CC(Br)=NO1)C(Cl)(Cl)Cl`, the T/C (dose: 12.5 mg/kg/injection, schedule: Q01DX005 (ip), vehicle: distilled water + Tween-80) was 100 % of control; the T/C (dose: 25.0 mg/kg/injection, schedule: Q01DX005 (ip), vehicle: distilled water + Tween-80) was 102 % of control; the T/C (dose: 50.0 mg/kg/injection, schedule: Q01DX005 (ip), vehicle: distilled water + Tween-80) was 105 % of control; the T/C (dose: 100.0 mg/kg/injection, schedule: Q01DX005 (ip), vehicle: distilled water + Tween-80) is 107 % of control.

Regarding `NC1=NS(=O)(=O)Nc2nc[nH]c21`, the T/C (dose: 50.0 mg/kg/injection, schedule: Q01DX009 (ip), vehicle: saline with Tween-80) was 101 % of control and the T/C (dose: 100.0 mg/kg/injection, schedule: Q01DX009 (ip), vehicle: saline with Tween-80) is 100 % of control.

As to `O=C(/C(Br)=C/c1ccccc1)/C(Br)=C/c1ccccc1`, the T/C (dose: 12.5 mg/kg/injection, schedule: Q01DX001 (ip), vehicle: saline with Tween-80) is 100 % of control; the T/C (dose: 25.0 mg/kg/injection, schedule: Q01DX001 (ip), vehicle: saline with Tween-80) is 100 % of control; the T/C (dose: 50.0 mg/kg/injection, schedule: Q01DX001 (ip), vehicle: saline with Tween-80) is 88 % of control.

Turning to `O=C(CC(=O)c1ccccc1)C(=O)CC(=O)c1ccccc1`, the T/C (dose: 100.0 mg/kg/injection, schedule: Q04DX002 (ip), vehicle: saline with Tween-80) was 103 % of control; the T/C (dose: 200.0 mg/kg/injection, schedule: Q04DX002 (ip), vehicle: saline with Tween-80) was 99 % of control; the T/C (dose: 400.0 mg/kg/injection, schedule: Q04DX002 (ip), vehicle: saline with Tween-80) was 99 % of control.

As to `CC(C)(C)N(Cc1ccccc1)C(O)Cc1c(-c2ccccc2)c(-c2ccccc2)c2n1CCC2` (stereo not drawn), the T/C by setting is: (dose: 60.0 mg/kg/injection, schedule: Q01DX005 (ip), vehicle: Klucel (hydroxypropylcellulose) (HPC)) 89 % of control; (dose: 120.0 mg/kg/injection, schedule: Q01DX005 (ip), vehicle: Klucel (hydroxypropylcellulose) (HPC)) 88 % of control.
